Measurements from patent publication US20090209536A1, “AMINOQUINAZOLINE CANNABINOID RECEPTOR MODULATORS FOR TREATMENT OF DISEASE” (KALYPSYS, INC., priority 2007, published 2009).
Where two headings read alike, the source gives them in different places.

Columns and labels:
[1] = target: T1, human cannabinoid receptor type 2 (Homo sapiens, UniProt P34972); assay: Human CB2 Radioligand Binding Assay; details: membranes from stably transfected CHO CB2 cells
T1 construct: expressed in transfected cells; membrane preparation
Method in brief: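 Filtration competition binding on membranes from CHO cells stably expressing human CB2, with [3H]CP-55,940 at its lot-specific Kd, in 50 mM Tris-HCl pH 7.4, EGTA, MgCl2, 5 mg/ml BSA, 1% DMSO; 90 min at 30° C. Compounds at 10 uM single point or dose-response; bound radioactivity by scintillation, 100 nM CP-55,940 as 100% efficacy.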

[2] = target: T2, human cannabinoid receptor type 1 (Homo sapiens, UniProt P21554); assay: Human CB1 Radioligand Binding Assay (basis of selectivity, CB2 vs. CB1); details: CB1: HEK 293 EBNA cells expressing human CB1; CB2: CHO CB2 membranes
T2 construct: purchased Perkin Elmer RBHCB1M; host or cells: HEK 293 EBNA cells
Method: 2. Human CB1 Radioligand Binding Assay
The incubation buffer was composed of 50 mM Tris-HCl pH 7.4, 2.5 mM EDTA, 5 mM MgCl2, 5.0 mg/ml fatty acid free BSA and the wash buffer was composed of 50 mM Tris-HCl pH 7.4, 2.5 mM EDTA, 5 mM MgCl2, 0.5 mg/ml fatty acid free BSA.

[3] = competition with [3H] CP-55,940, read-out: CB2 Ligand Binding Asssay EC50
[4] = CB2 Ligand Binding Asssay EC50, competition with [3H] CP-55,940

T1 sequence (P34972 whole entry): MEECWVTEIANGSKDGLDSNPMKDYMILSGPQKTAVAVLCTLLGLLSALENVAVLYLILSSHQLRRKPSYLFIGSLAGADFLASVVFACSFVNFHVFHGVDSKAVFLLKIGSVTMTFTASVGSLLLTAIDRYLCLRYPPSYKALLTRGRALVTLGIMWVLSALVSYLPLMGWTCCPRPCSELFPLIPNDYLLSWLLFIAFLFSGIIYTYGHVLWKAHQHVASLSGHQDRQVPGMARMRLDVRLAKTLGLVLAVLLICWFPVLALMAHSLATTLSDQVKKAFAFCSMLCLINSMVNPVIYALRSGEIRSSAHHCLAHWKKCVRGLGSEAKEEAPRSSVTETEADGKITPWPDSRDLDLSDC
T2 sequence (P21554 whole entry): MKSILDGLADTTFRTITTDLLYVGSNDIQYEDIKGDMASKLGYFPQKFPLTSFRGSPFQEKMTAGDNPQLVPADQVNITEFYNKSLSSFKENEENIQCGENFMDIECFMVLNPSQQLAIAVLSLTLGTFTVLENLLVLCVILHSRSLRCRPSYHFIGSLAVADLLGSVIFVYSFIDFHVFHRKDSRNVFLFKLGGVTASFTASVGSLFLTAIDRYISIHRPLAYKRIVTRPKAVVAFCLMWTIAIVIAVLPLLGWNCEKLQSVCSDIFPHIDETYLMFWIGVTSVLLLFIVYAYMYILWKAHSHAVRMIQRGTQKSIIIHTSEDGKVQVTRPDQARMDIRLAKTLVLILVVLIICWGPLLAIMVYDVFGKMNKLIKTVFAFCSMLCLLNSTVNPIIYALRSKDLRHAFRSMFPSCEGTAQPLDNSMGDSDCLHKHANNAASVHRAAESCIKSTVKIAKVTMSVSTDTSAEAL

With CC(C)(C)c1ccc2nc(-c3ccccc3Cl)nc(N3CCCCC3)c2c1 [Example 170, 6-tert-Butyl-2-(2-chlorophenyl)-4-(piperidin-1-yl)quinazoline] as the molecule, how does the EC50 [1, 3] read?
The EC50 was under 1000 nM.

What about the “Selectivity, CB2 vs. CB1” value [2] of the same molecule?
The value was “+ (+ indicates > 10−fold)”.

CC(C)(C)c1ccc2nc(-c3ccccc3Cl)nc(N3CCCC3)c2c1 [Example 171, 6-tert-Butyl-2-(2-chlorophenyl)-4-(pyrrolidin-1-yl)quinazoline] was tested. Which EC50 [1, 3] did it give?
Its EC50 is under 1000 nM.

And the “Selectivity, CB2 vs. CB1” value [2]?
The value was “+ (+ indicates > 10−fold)”.

Which EC50 [1, 3] does the source give for COc1ccc2nc(-c3ccccc3Cl)nc(N3CCSCC3)c2c1 [Example 172, 4-(2-(2-Chlorophenyl)-6-methoxyquinazolin-4-yl)thiomorpholine] here?
Its EC50 is under 1000 nM.

And the “Selectivity, CB2 vs. CB1” value [2]?
Its value is “+ (+ indicates > 10−fold)”.

Which results are given for CCc1ccc2nc(-c3ccccc3Cl)nc(N3CCN(C)CC3)c2c1 [Example 173, 2-(2-Chlorophenyl)-6-ethyl-4-(4-methylpiperazin-1-yl)quinazoline]?
EC50 [1, 3]: < 1000 nM; Selectivity, CB2 vs. CB1 [2]: + (+ indicates > 10−fold)

Which results are given for CCc1ccc2nc(-c3ccccc3Cl)nc(N3CCSCC3)c2c1 [Example 174, 4-(2-(2-Chlorophenyl)-6-ethylquinazolin-4-yl)thiomorpholine]?
EC50 [1, 3]: < 1000 nM; Selectivity, CB2 vs. CB1 [2]: + (+ indicates > 10−fold)

For CCc1ccc2nc(-c3ccccc3Cl)nc(N3CCCCC3)c2c1 [Example 175, 2-(2-Chlorophenyl)-6-ethyl-4-(piperidin-1-yl)quinazoline], which EC50 [1, 3] is on record?
Its EC50 is under 1000 nM.

What about the “Selectivity, CB2 vs. CB1” value [2] of the same molecule?
Its value is “− (− indicates ≦ 10−fold)”.

Which EC50 [1, 3] does the source give for CCc1ccc2nc(-c3ccccc3Cl)nc(N3CCCC3)c2c1 [Example 176, 2-(2-Chlorophenyl)-6-ethyl-4-(pyrrolidin-1-yl)quinazoline] here?
Its EC50 is under 1000 nM.

What about the “Selectivity, CB2 vs. CB1” value [2] of the same molecule?
The value was “+ (+ indicates > 10−fold)”.

With COc1ccc2nc(-c3ccccc3Cl)nc(N3CCN(C)CC3)c2c1 [Example 177, 2-(2-Chlorophenyl)-6-methoxy-4-(4-methylpiperazin-1-yl)quinazoline] as the molecule, how does the EC50 [1, 3] read?
The EC50 was under 1000 nM.

And the “Selectivity, CB2 vs. CB1” value [2]?
Its value is “− (− indicates ≦ 10−fold)”.

What does the source list for COc1ccc2nc(-c3ccccc3Cl)nc(N3CCCCC3)c2c1 [Example 178, 2-(2-Chlorophenyl)-6-methoxy-4-(piperidin-1-yl)quinazoline]?
EC50 [1, 3]: < 1000 nM; Selectivity, CB2 vs. CB1 [2]: − (− indicates ≦ 10−fold)

For COc1ccc2nc(-c3ccccc3Cl)nc(N3CCCC3)c2c1 [Example 179, 2-(2-Chlorophenyl)-6-methoxy-4-(pyrrolidin-1-yl)quinazoline], which EC50 [1, 3] is on record?
Its EC50 is under 1000 nM.

What about the “Selectivity, CB2 vs. CB1” value [2] of the same molecule?
The value was “+ (+ indicates > 10−fold)”.

For CN1CCN(c2nc(-c3ccccc3Cl)nc3ccc(OC(F)(F)F)cc23)CC1 [Example 180, 2-(2-Chlorophenyl)-4-(4-methylpiperazin-1-yl)-6-(trifluoromethoxy) quinazoline], which EC50 [1, 3] is on record?
The EC50 was under 1000 nM.

And the “Selectivity, CB2 vs. CB1” value [2]?
The value was “− (− indicates ≦ 10−fold)”.

How did the EC50 [1, 3] turn out when FC(F)(F)Oc1ccc2nc(-c3ccccc3Cl)nc(N3CCCCC3)c2c1 [Example 181, 2-(2-Chlorophenyl)-4-(piperidin-1-yl)-6-(trifluoromethoxy) quinazoline] was run?
Its EC50 is over 1000 nM.

What about the “Selectivity, CB2 vs. CB1” value [2] of the same molecule?
The value was “− (− indicates ≦ 10−fold)”.

FC(F)(F)Oc1ccc2nc(-c3ccccc3Cl)nc(N3CCCC3)c2c1 [Example 182, 2-(2-Chlorophenyl)-4-(pyrrolidin-1-yl)-6-(trifluoromethoxy) quinazoline] was tested. Which EC50 [1, 4] did it give?
Its EC50 is over 1000 nM.

And the “Selectivity, CB2 vs. CB1” value [2]?
Its value is “− (− indicates ≦ 10−fold)”.

For Clc1ccccc1-c1nc(N2CCCC2)c2cc(Br)ccc2n1 [Example 184, 6-Bromo-2-(2-chlorophenyl)-4-(pyrrolidin-1-yl)quinazoline], which EC50 [1, 3] is on record?
Its EC50 is under 1000 nM.

What about the “Selectivity, CB2 vs. CB1” value [2] of the same molecule?
Its value is “− (− indicates ≦ 10−fold)”.

Which results are given for CC(=O)N1CCN(c2nc(C3CCCCC3)nc3ccc(Cl)cc23)CC1 [Example 185, 1-(4-(6-Chloro-2-cyclohexylquinazolin-4-yl)piperazin-1-yl)ethanone]?
EC50 [1, 3]: < 1000 nM; Selectivity, CB2 vs. CB1 [2]: − (− indicates ≦ 10−fold)

With COc1ccc2nc(C3CCCCC3)nc(N3CCN(C(C)=O)CC3)c2c1 [Example 186, 1-(4-(2-Cyclohexyl-6-methoxyquinazolin-4-yl)piperazin-1-yl)ethanone] as the molecule, how does the EC50 [1, 3] read?
Its EC50 is under 1000 nM.

What about the “Selectivity, CB2 vs. CB1” value [2] of the same molecule?
Its value is “− (− indicates ≦ 10−fold)”.

For Cc1ccccc1-c1nc(N2CCCCC2)c2ccccc2n1 [Example 187, 4-Piperidin-1-yl-2-o-tolylquinazoline], which EC50 [1, 3] is on record?
The EC50 was over 1000 nM.

And the “Selectivity, CB2 vs. CB1” value [2]?
The value was “− (− indicates ≦ 10−fold)”.

With Clc1ccccc1-c1nc(NCC2CCCO2)c2ccccc2n1 (stereo not shown) [Example 188, 2-(2-Chlorophenyl)-N-((tertrahydrofuran-2-yl)methyl)quinzaoline-4-amine] as the molecule, how does the EC50 [1, 3] read?
The EC50 was over 1000 nM.

And the “Selectivity, CB2 vs. CB1” value [2]?
The value was “− (− indicates ≦ 10−fold)”.

For CC(C)(C)CCNc1nc(-c2ccccc2Cl)nc2ccccc12 [Example 189, 2-(2-Chlorophenyl)-N-(3,3-dimethylbutyl)quinazolin-4-amine], which EC50 [1, 3] is on record?
The EC50 was over 1000 nM.

What about the “Selectivity, CB2 vs. CB1” value [2] of the same molecule?
The value was “− (− indicates ≦ 10−fold)”.

What does the source list for Clc1ccccc1-c1nc(NCC23CC4CC(CC(C4)C2)C3)c2ccccc2n1 [Example 190, 2-(2-Chlorophenyl)-N-(1-adamanthylmethyl)quinazolin-4-amine]?
EC50 [1, 3]: > 1000 nM; Selectivity, CB2 vs. CB1 [2]: − (− indicates ≦ 10−fold)

For Clc1ccccc1-c1nc(NCCc2ccccn2)c2ccccc2n1 [Example 191, 2-(2-Chlorophenyl)-N-(2-(pyridine-2-yl)ethyl)quinazolin-4-amine], which EC50 [1, 3] is on record?
The EC50 was over 1000 nM.

And the “Selectivity, CB2 vs. CB1” value [2]?
Its value is “− (− indicates ≦ 10−fold)”.

Which results are given for Clc1ccccc1-c1nc(NCCCN2CCOCC2)c2ccccc2n1 [Example 192, 2-(2-Chlorophenyl)-N-(3-morpholinopropyl)quinazolin-4-amine]?
EC50 [1, 3]: > 1000 nM; Selectivity, CB2 vs. CB1 [2]: − (− indicates ≦ 10−fold)

What does the source list for Clc1ccccc1-c1nc(NCC2CCCCC2)c2ccccc2n1 [Example 193, 2-(2-Chlorophenyl)-N-(cyclohexylmethyl)quinazolin-4-amine]?
EC50 [1, 4]: > 1000 nM; Selectivity, CB2 vs. CB1 [2]: − (− indicates ≦ 10−fold)

Which EC50 [1, 3] does the source give for CN(CC1CCCCC1)c1nc(-c2ccccc2Cl)nc2ccccc12 [Example 194, 2-(2-Chlorophenyl)-N-(cyclohexylmethyl)-N-methylquinazolin-4-amine] here?
The EC50 was under 1000 nM.

And the “Selectivity, CB2 vs. CB1” value [2]?
The value was “− (− indicates ≦ 10−fold)”.

FC(F)(F)c1ccc(Cc2nc(N3CCCCC3)c3ccccc3n2)cc1 [Example 195, 4-(Piperidin-1-yl)-2-(4-(trifluoromethyl)benzyl)quinazoline] was tested. Which EC50 [1, 3] did it give?
The EC50 was over 1000 nM.

And the “Selectivity, CB2 vs. CB1” value [2]?
Its value is “− (− indicates ≦ 10−fold)”.

Which results are given for CCOC(=O)N1CCN(c2nc(Cc3cccc(OC)c3)nc3ccccc23)CC1 [Example 196, Ethyl 4-(2-(3-Methoxybenzyl)quinazolin-4-yl)piperazine-1-carboxylate]?
EC50 [1, 3]: > 1000 nM; Selectivity, CB2 vs. CB1 [2]: − (− indicates ≦ 10−fold)

With Clc1nccc(N2CCN(c3nc(-c4ccccc4Cl)nc4ccccc34)CC2)n1 [Example 197, 2-(2-Chlorophenyl)-4-(4-(2-chloropyrimidin-4-yl)piperazin-1-yl)quinazoline] as the molecule, how does the EC50 [1, 3] read?
The EC50 was under 1000 nM.

What about the “Selectivity, CB2 vs. CB1” value [2] of the same molecule?
The value was “+ (+ indicates > 10−fold)”.

Which EC50 [1, 3] does the source give for Clc1ccnc(N2CCN(c3nc(-c4ccccc4Cl)nc4ccccc34)CC2)n1 [Example 198] here?
Its EC50 is over 1000 nM.

And the “Selectivity, CB2 vs. CB1” value [2]?
The value was “− (− indicates ≦ 10−fold)”.

What does the source list for CC(=O)N1CCN(c2nc(-c3ccc(Cl)cc3)nc3ccccc23)CC1 [Example 199, 1-(4-(2-(4-Chlorophenyl)quinazolin-4-yl)piperazin-1-yl)ethanone]?
EC50 [1, 3]: > 1000 nM; Selectivity, CB2 vs. CB1 [2]: − (− indicates ≦ 10−fold)
